# From patent US20060173069A1, “Therapeutic agent for hyperpotassemia and bone disease” (RIKEN, priority 2003, published 2006)
# How the values were obtained:
# mature osteoclasts = experiment: Cell-death (apoptosis) inducing activity on mature osteoclasts, number of TRAP-stained multinuclear cells; assay type: cell-based, mouse; conditions: for EC50: Mus musculus, Osteoclast, RAW264-derived mature osteoclasts, 24 hours incubation, TRAP staining, read-out: ED50 level of cell-death inducing activity to mature osteoclasts, Number of cells; for selective apoptosis inducing effect on the mature osteoclasts: in words
# Experimental: Using 29 different reveromycin A derivatives synthesized as described above, the cell-death inducing activities on the mature osteoclasts and undifferentiated macrophage-like cells derived from a mouse (RAW264 cells) were examined, respectively. The RAW264 cells, a mouse-macrophage cell line, were suspended in a 10% FBS-αMEM (manufactured by Gibco BRL Co., Ltd.) and then 12,000 cells/100 μl were inoculated in a 96-well plate. After 1-hour incubation, 100 μl of a culture medium containing RANKL ([…]) and PD98059 (40 μM) were added (final concentration: RANKL […] and PD98059 20 μM) and then incubated for 4 days to allow the differentiation of the cells to mature osteoclasts (J. Biol. Chem. Vol. 277, pp. 47366-47372 (2002)). Furthermore, on the second day of the culture, the half of the culture medium was replaced with new one. From each well of the plate where the cells were differentiated to the mature osteoclasts, 100 μl/well of the culture medium was removed. […] The apoptosis inducing activity was confirmed by the observation of agglutination of nuclei stained with 10 μM Hoechst 33258 for 10-minututes.
# [1] = system: undifferentiated RAW264 cells; experiment: Cell-death inducing activity on undifferentiated RAW264 cells, MTT method; assay type: cell-based, mouse; conditions: for CC50: Mus musculus, RAW264.7, 24 hours incubation, MTT, read-out: ED50 level of cell-death inducing activity to undifferentiated RAW264 cells, MTT; for growth inhibitory action on the osteoclast precursor cells RAW264: even at a comparatively high concentration
# Experimental: The cell-death inducing activities to the undifferentiated RAW264 cells were investigated by the MTT method (J. Immunol. Methods, Vol. 65, pp 55-63 (1983). The RAW 264 cells were plated on a 96-well plate at a density of 40,000 cells/100 μl and then incubated for 24 hours. After the 24-hour incubation, 50 μl of a culture medium containing a three-fold concentration of the drug was added and then incubated for 24 hours to investigate the cell-death inducing activity. Two hours before the measurement of the cell-death inducing activity, 15 μl of 0.5% MTT-PBS (phosphate buffer saline) was added and incubated. After that, the residue from which the culture solution was removed was dissolved in 100 μl of DMSO (dimethyl sulfoxide) and the absorbance at 570 nm (a reference wave length of 630 nm) was measured, followed by calculating the ED50 level of the cell-death inducing activity.
# [2] = system: anterior limb long bone, bone resorption induced by PTH, IL-1 or vitamin D3; experiment: Inhibition of 45Ca liberation (bone resorption activity) from cultured fetal long bone; assay type: cell-based, rat; conditions: 72 hours culture; for inhibition of bone resorption induced by the PTH: 10^−8M, 10^−7M and 10^−6M, PTH 10^−8M; for inhibition of bone resorption due to vitamin D3 or IL-1: IL-1 0.3 ng/ml, vitamin D3 10^−8M
# Experimental: The effects of the reveromycin A derivatives on the facilitation of the bone resorption due to the parathyroid hormone (PTH) were measured.
# A19-day pregnant rat was subjected to the hypodermic injection of [^45Ca]CaCl2 to label a fetal bone. After 24 hours, the anterior limb long bone was extracted. For an anterior limb long bone, a Dulbecco-modified Eagle medium (DMEM) containing 15% heat-inactivated horse serum and 100 U/ml penicillin was used as a culture medium and then incubated for 72 hours together with a bone resorption factor (PTH 10^−8M, IL-1 0.3 ng/ml, vitamin D3 10^−8M) and the reveromycin A derivatives. After incubation, ^45Ca radioactivities in a solution into which calcium of the bone was eluted by 0.1 N HCl and in the culture solution were measured using a liquid scintillation counter. The ratio of the amount of calcium released into the culture solution to the total amount of calcium (bone resorption activity (%)) was used as an indicator and the effects of the reveromycin A derivatives on the facilitation of the bone resorption due to the PTH was investigated. • Bone resorption activity (%)=100×Amount of ^45Ca released into culture solution/(Amount of ^45Ca released into culture solution+Amount of ^45Ca left in bone)
# [3] = system: bone resorption due to parathyroid hormone (PTH); experiment: Serum calcium in TPTX rats with hypercalcemia by continuous PTH infusion; assay type: in vivo, SD rats; conditions: for increase in the level of serum calcium due to PTH: 80 mg/kg, TPTX SD rats, administered 12 hours after start of PTH, followed 24 hours; for duration of inhibitory action on bone resorption: comparison of calcitonin with reveromycin A derivatives
# Experimental: The bone resorption inhibitory effects of the reveromycin A derivatives were examined by measuring the level of serum calcium released in the blood by the action of bone resorption. SD rats were subjected to an operation of extracting the thyroid glands and the parathyroid glands (TPTX). Next day, a decrease in serum calcium was confirmed and then the continuous infusion of the parathyroid hormone (PTH) was carried out, thereby creating rats each having hypercalcemia by accelerating the bone resorption.
# At 12 hours from the initiation of PTH injection, the reveromycin A derivatives ([…]) or a sodium salt thereof ([…]) were administered and the level of serum calcium was then measured in time-course for 24 hours.
structure (smiles),measurement,setting,value
"CCCC[C@@]1(OC(=O)CCC(=O)O)CC[C@]2(CC[C@H](C)[C@@H](C/C=C(C)/C=C/[C@H](O[Si](C)(C)C(C)(C)C)[C@@H](C)/C=C/C(=O)O)O2)O[C@H]1/C=C/C(C)=C/C(=O)O [Compound 2, C5-silylether]",EC50,mature osteoclasts,6.6 µM
same,selective apoptosis inducing effect on the mature osteoclasts,mature osteoclasts,showed a selective apoptosis inducing effect
same,CC50,[1],89 µM
same,growth inhibitory action on the osteoclast precursor cells RAW264,[1],do not show any growth inhibitory action
same,inhibition of bone resorption induced by the PTH,[2],"inhibited the bone resorption induced by the PTH at 10^−8M, 10^−7M, and 10^−6M, in a concentration-dependent manner"
same,inhibition of bone resorption due to vitamin D3 or IL-1,[2],could be also inhibited
same,increase in the level of serum calcium due to PTH,[3],significant suppression
same,duration of inhibitory action on bone resorption,[3],prolonged inhibitory action on bone resorption
"CCCC[C@@]1(OC(=O)CCC(=O)O)CC[C@]2(CC[C@H](C)[C@@H](C/C=C(C)/C=C/[C@H](OC(C)=O)[C@@H](C)/C=C/C(=O)O)O2)O[C@H]1/C=C/C(C)=C/C(=O)O [Compound 27, C5-acetate]",EC50,mature osteoclasts,1.3 µM
same,selective apoptosis inducing effect on the mature osteoclasts,mature osteoclasts,showed a selective apoptosis inducing effect
same,CC50,[1],49 µM
same,growth inhibitory action on the osteoclast precursor cells RAW264,[1],do not show any growth inhibitory action
same,inhibition of bone resorption induced by the PTH,[2],"inhibited the bone resorption induced by the PTH at 10^−8M, 10^−7M, and 10^−6M, in a concentration-dependent manner"
same,inhibition of bone resorption due to vitamin D3 or IL-1,[2],could be also inhibited
same,increase in the level of serum calcium due to PTH,[3],significant suppression
same,duration of inhibitory action on bone resorption,[3],prolonged inhibitory action on bone resorption
